Data published in patent publication US7163952B2, “Azole compound and medicinal use thereof” (Japan Tobacco Inc., priority 2001, dated 2007).
Where a name gives a salt, the structure may show the parent alone.

Row | melting point | Compound
1 | 240 °C | CN(Cc1ccc(C2CCCCC2)cc1)c1ccc(-c2csc(N(C)Cc3ccc(C(=O)[O-])cc3)n2)cc1.[K+]
2 | 167 to 170 °C | CN(Cc1ccc(C2CCCCC2)cc1)c1ccc(-c2csc(N(C)Cc3ccc(C(=O)O)cc3)n2)cc1.CS(=O)(=O)O
3 | 130 °C (dec.) | CN(Cc1ccc(C2CCCCC2)cc1)c1ccc(-c2csc(N(C)Cc3ccc(C(=O)O)cc3)n2)cc1.O=S(=O)(O)O
4 | 231 to 233 °C | CN(c1ccc(C(=O)O)cc1)c1nc(-c2ccc(NCc3ccc(C4CCCCC4)cc3)cc2)cs1.CS(=O)(=O)O
5 | 239 °C (dec.) | CN(c1ccc(C(=O)O)cc1)c1nc(-c2ccc(NCc3ccc(C4CCCCC4)cc3)cc2)cs1.O=S(=O)(O)O
6 | 230 °C (dec.) | CC(C)N(c1ccc(C(=O)O)cc1)c1nc(-c2ccc(NC(=O)c3ccc(N4CCOCC4)cc3)cc2)cs1.Cl
7 | 220 °C (dec.) | CC(C)N(c1cccc(C(=O)O)c1)c1nc(-c2ccc(NC(=O)c3ccc(N4CCCCC4)cc3)cc2)cs1.Cl
8 | 230 °C (dec.) | CC(C)N(c1cccc(C(=O)O)c1)c1nc(-c2ccc(NC(=O)c3ccc(N4CCOCC4)cc3)cc2)cs1.Cl
9 | 230 °C (dec.) | CC(C)N(c1ccc(C(=O)O)cc1)c1nc(-c2ccc(NC(=O)c3ccc(N4CCCCC4)cc3)cc2)cs1.Cl
10 | 230 °C (dec.) | CC1CCN(c2ccc(C(=O)Nc3ccc(-c4csc(N(c5ccc(C(=O)O)cc5)C(C)C)n4)cc3)cc2)CC1.Cl
11 | 152 to 160 °C | CC1CC(C)CN(c2ccc(C(=O)Nc3ccc(-c4csc(N(c5ccc(C(=O)O)cc5)C(C)C)n4)cc3)cc2)C1.Cl (stereo not shown)
12 | 230 °C (dec.) | CC(C)N(c1ccc(C(=O)O)cc1)c1nc(-c2ccc(NC(=O)c3ccc(N4C[C@@H](C)O[C@@H](C)C4)cc3)cc2)cs1.Cl
13 | 220 °C (dec.) | CC(C)N(c1ccc(C(=O)O)c(Cl)c1)c1nc(-c2ccc(NC(=O)c3ccc(N4CCCCC4)cc3)cc2)cs1.Cl
14 | 220 °C (dec.) | CC(C)N(c1ccc(C(=O)O)c(Cl)c1)c1nc(-c2ccc(NC(=O)c3ccc(N4CCOCC4)cc3)cc2)cs1.Cl
15 | 135 to 140 °C | CC(C)N(Cc1ccc(C(=O)O)cc1)c1nc(-c2ccc(OCc3cccc(N4CCCCC4)c3)cc2)cs1 (as salt: hydrochloride) [Example 127, 4-((N-isopropyl-N-(4-(4-(3-piperidinobenzyloxy)phenyl)-2-thiazolyl)amino)methyl)benzoic acid dihydrochloride]
16 | 173 to 176 °C | O=C(O)c1ccc(N(CCC2CCCCC2)c2nc(-c3nc4cc(OCc5ccc(Cl)c(Cl)c5)ccc4[nH]3)cs2)cc1 (as salt: hydrochloride) [Example 185, 4-(N-(2-cyclohexylethyl)-N-(4-(5-(3,4-dichlorobenzyloxy)-2-benzoimidazolyl)-2-thiazolyl)amino)benzoic acid hydrochloride]
17 | 220 °C | O=C(O)c1ccc(Nc2nc(-c3nc4cc(OCc5ccc(Cl)c(Cl)c5)ccc4[nH]3)cs2)cc1 (as salt: hydrochloride) [Example 186, 4-(4-(5-(3,4-dichlorobenzyloxy)-2-benzoimidazolyl)-2-thiazolylamino)benzoic acid hydrochloride]
18 | 234 to 236 °C | CN(c1ccc(C(=O)O)cc1)c1nc(-c2ccc(NCc3ccc(C4CCCCC4)cc3)cc2)cs1 (as salt: hydrochloride) [Example 258, 4-(N-(4-(4-(4-cyclohexylbenzylamino)phenyl)-2-thiazolyl)-N-methylamino)benzoic acid hydrochloride]
19 | 220 °C | CN(Cc1ccc([C@H]2CCC[C@@H](O)C2)cc1)c1ccc(-c2csc(N(C)Cc3ccc(C(=O)O)cc3)n2)cc1 (relative stereo) [Example 205, cis-4-((N-(4-(4-(N-(4-(3-hydroxycyclohexyl)benzyl)-N-methylamino)phenyl)-2-thiazolyl)-N-methylamino)methyl)benzoic acid]
20 | 159 to 161 °C | CN(Cc1ccc([C@H]2CCC[C@H](O)C2)cc1)c1ccc(-c2csc(N(C)Cc3ccc(C(=O)O)cc3)n2)cc1 (relative stereo) [Example 206, trans-4-((N-(4-(4-(N-(4-(3-hydroxycyclohexyl)benzyl)-N-methylamino)phenyl)-2-thiazolyl)-N-methylamino)methyl)benzoic acid]

Row | melting point | Compound
21 | 250 °C (dec.) | O=C(O)c1ccc(Nc2nc(-c3ccc(NC(=O)c4ccccc4)cc3)cs2)cc1 [Example 4, 4-(4-(4-benzoylaminophenyl)-2-thiazolylamino)benzoic acid]
22 | 250 °C (dec.) | CC(C)(C)c1ccc(C(=O)Nc2ccc(-c3csc(Nc4ccc(C(=O)O)cc4)n3)cc2)cc1 [Example 5, 4-(4-(4-(4-tert-butylbenzoylamino)phenyl)-2-thiazolylamino)benzoic acid]
23 | 250 °C (dec.) | O=C(O)c1ccc(Nc2nc(-c3ccc(NC(=O)c4ccc(C5CCCCC5)cc4)cc3)cs2)cc1 [Example 6, 4-(4-(4-(4-cyclohexylbenzoylamino)phenyl)-2-thiazolylamino)benzoic acid]
24 | 250 °C (dec.) | CCN(c1ccc(C(=O)O)cc1)c1nc(-c2ccc(NC(=O)c3ccccc3)cc2)cs1 [Example 7, 4-(N-(4-(4-benzoylaminophenyl)-2-thiazolyl)-N-ethylamino)benzoic acid]
25 | 250 °C (dec.) | CCN(c1ccc(C(=O)O)cc1)c1nc(-c2ccc(NC(=O)c3ccc(C4CCCCC4)cc3)cc2)cs1 [Example 8, 4-(N-(4-(4-(4-cyclohexylbenzoylamino)phenyl)-2-thiazolyl)-N-ethylamino)benzoic acid]
26 | 234 to 236 °C | CC(C)N(c1ccc(C(=O)O)cc1)c1nc(-c2ccc(NC(=O)c3ccccc3)cc2)cs1 [Example 9, 4-(N-(4-(4-benzoylaminophenyl)-2-thiazolyl)-N-isopropylamino)benzoic acid]
27 | 230 °C (dec.) | CC(C)N(c1ccc(C(=O)O)cc1)c1nc(-c2ccc(NC(=O)c3ccc(C4CCCCC4)cc3)cc2)cs1 [Example 10, 4-(N-(4-(4-(4-cyclohexylbenzoylamino)phenyl)-2-thiazolyl)-N-isopropylamino)benzoic acid]
28 | 250 °C (dec.) | CCN(c1ccc(C(=O)O)cc1)c1nc(-c2ccc(NC(=O)C3CCCCC3)cc2)cs1 [Example 11, 4-(N-(4-(4-(cyclohexanecarbonylamino)phenyl)-2-thiazolyl)-N-ethylamino)benzoic acid]
29 | 230 °C (dec.) | CC(C)N(c1ccc(C(=O)O)cc1)c1nc(-c2ccc(NC(=O)C3CCCCC3)cc2)cs1 [Example 12, 4-(N-(4-(4-(cyclohexanecarbonylamino)phenyl)-2-thiazolyl)-N-isopropylamino)benzoic acid]
30 | 231 to 232 °C | CC(C)CN(c1ccc(C(=O)O)cc1)c1nc(-c2ccc(NC(=O)C3CCCCC3)cc2)cs1 [Example 13, 4-(N-(4-(4-(cyclohexanecarbonylamino)phenyl)-2-thiazolyl)-N-isobutylamino)benzoic acid]
31 | 210 °C (dec.) | O=C(O)CN(c1ccc(C(=O)O)cc1)c1nc(-c2ccc(NC(=O)C3CCCCC3)cc2)cs1 [Example 14, 4-(N-carboxymethyl-N-(4-(4-(cyclohexanecarbonylamino)phenyl)-2-thiazolyl)amino)benzoic acid]
32 | 234 to 235 °C | CC(C)CN(c1ccc(C(=O)O)cc1)c1nc(-c2ccc(NC(=O)c3ccccc3)cc2)cs1 [Example 15, 4-(N-(4-(4-benzoylaminophenyl)-2-thiazolyl)-N-isobutylamino)benzoic acid]
33 | 210 °C (dec.) | O=C(O)CN(c1ccc(C(=O)O)cc1)c1nc(-c2ccc(NC(=O)c3ccccc3)cc2)cs1 [Example 16, 4-(N-(4-(4-benzoylaminophenyl)-2-thiazolyl)-N-carboxymethylamino)benzoic acid]
34 | 230 °C (dec.) | CC(C)CN(c1ccc(C(=O)O)cc1)c1nc(-c2ccc(NC(=O)c3ccc(C4CCCCC4)cc3)cc2)cs1 [Example 17, 4-(N-(4-(4-(4-cyclohexylbenzoylamino)phenyl)-2-thiazolyl)-N-isobutylamino)benzoic acid]
35 | 230 °C (dec.) | O=C(O)CN(c1ccc(C(=O)O)cc1)c1nc(-c2ccc(NC(=O)c3ccc(C4CCCCC4)cc3)cc2)cs1 [Example 18, 4-(N-carboxymethyl-N-(4-(4-(4-cyclohexylbenzoylamino)phenyl)-2-thiazolyl)amino)benzoic acid]
36 | 250 °C (dec.) | CN(c1ccc(C(=O)O)cc1)c1nc(-c2ccc(NC(=O)c3ccc(C4CCCCC4)cc3)cc2)cs1 [Example 19, 4-(N-(4-(4-(4-cyclohexylbenzoylamino)phenyl)-2-thiazolyl)-N-methylamino)benzoic acid]
37 | 250 °C (dec.) | CN(c1ccc(C(=O)O)cc1)c1nc(-c2ccc(NC(=O)c3ccc(C(C)(C)C)cc3)cc2)cs1 [Example 20, 4-(N-(4-(4-(4-tert-butylbenzoylamino)phenyl)-2-thiazolyl)-N-methylamino)benzoic acid]
38 | 250 °C (dec.) | O=C(O)c1ccc(Nc2nc(-c3ccc(OCc4ccc(C5CCCCC5)cc4)cc3)cs2)cc1 [Example 21, 4-(4-(4-(4-cyclohexylbenzyloxy)phenyl)-2-thiazolylamino)benzoic acid]
39 | 250 °C (dec.) | CN(c1ccc(C(=O)O)cc1)c1nc(-c2ccc(OCc3ccc(C4CCCCC4)cc3)cc2)cs1 [Example 22, 4-(N-(4-(4-(4-cyclohexylbenzyloxy)phenyl)-2-thiazolyl)-N-methylamino)benzoic acid]
40 | 239 to 247 °C | CCN(c1ccc(C(=O)O)cc1)c1nc(-c2ccc(OCc3ccc(C4CCCCC4)cc3)cc2)cs1 [Example 23, 4-(N-(4-(4-(4-cyclohexylbenzyloxy)phenyl)-2-thiazolyl)-N-ethylamino)benzoic acid]

Row | Compound | melting point
41 | CN(Cc1ccc(C(=O)O)cc1)c1nc(-c2ccc(OCc3ccc(C4CCCCC4)cc3)cc2)cs1.CS(=O)(=O)O | 175 °C (dec.)
42 | CN(Cc1ccc(C(=O)O)cc1)c1nc(-c2ccc(OCc3ccc(C4CCCCC4)cc3)cc2)cs1.O=S(=O)(O)O | 182 to 183 °C
43 | CN(Cc1ccc(C(=O)O)cc1)c1nc(-c2ccc(OCc3ccc(C4CCCCC4)cc3)cc2)cs1 (as salt: hydrochloride) [Example 252, 4-((N-(4-(4-(4-cyclohexylbenzyloxy)phenyl)-2-thiazolyl)-N-methylamino)methyl)benzoic acid hydrochloride] | 174 °C (dec.)
